Test results: paper PMC10287566, “Signaling-specific inhibition of the CB1 receptor for cannabis use disorder: phase 1 and phase 2a randomized trials” (Nature Medicine, 2023)

Tests used:
[1] = test system: mice; test: Anxiety-related behavior, elevated plus maze, repeated treatment; format: in vivo
Description: (§1) Anxiety-like behaviors were studied in the elevated plus maze (EPM), a rodent model used to evaluate the putative anxiogenic or anxiolytic effects of pharmacological compounds. Depression-related behaviors were studied using the sucrose preference test as a model of anhedonia, one of the cardinal symptoms of depression.
The EPM apparatus comprises four elevated arms arranged in a cross-like shape, with the two opposite arms enclosed by walls and the other two arms open. For all experiments, mice were placed in the center of the EPM and were free to explore the maze for 5 min after receiving the treatment. The time spent and the number of entries into the open and closed arms were measured by an automatic video tracking system (EthoVision XT version 12, Noldus Information Technology). A decrease in the percentage of visits and/or the time spent in open arms is considered an index of increased anxiety.
(§2) The EPM assessment was done on day 26, and the sucrose preference test was done on day 28.

[2] = test system: mice; set-up: method as in earlier work; settings: 10 mg/kg, not run in parallel; cited from earlier work
[3] = test system: mice; test: Precipitated withdrawal in THC-dependent mice; format: in vivo
Procedure: From day 1 to days 4–5, mice were injected i.p. with vehicle or THC (20 mg kg^−1) twice per day. On the last day of treatment, mice in the THC group received rimonabant or AEF0117. All other animals received the respective vehicle. […] For the measure of precipitated withdrawal, mice were placed in a novel home cage, and a video camera was positioned in front of each cage to record behavior. Scoring was performed for 1 min every 5-min period. Two withdrawal signs were analyzed—paw tremors and head shaking—because they are the most common signs of THC withdrawal observed in mice[14].

[4] = test system: mice; test: Depression-related behavior, sucrose preference test, repeated treatment; format: in vivo
Description: as §1
The sucrose preference test was done in the home cage. Two identical bottles, one containing water and the other containing a 2% sucrose solution, were placed in the hopper of each cage. The mice had unlimited access to water and sucrose solutions during the active phase—the dark phase of the light/dark cycle that started at 20:00. The volume of water and of sucrose solution consumed was measured over two […] intervals, the first between 19:00 and 20:30 and the second between 20:30 and 22:00. At each timepoint, the bottles were weighed, and the intake volume was calculated by subtracting the […].
as §2

[5] = test system: DIO mice; test: Food intake and body weight in diet-induced obese mice, repeated treatment; format: in vivo
Procedure: Body weight and food intake were studied because they are reduced by repeated treatment with rimonabant both in mice[31] and in humans. DIO mice were used because the effects of CB1 antagonists are of greater amplitude in obese mice than in lean mice. Male C57BL/6J mice (8 weeks old) were fed ad libitum with a high-fat diet (HFD) for 8 weeks before the start of the pharmacological treatments. During pharmacological treatments, the HFD was maintained, and food intake and body weight were measured daily. The food consumed was calculated by subtracting the food left in the hoppers from the initial pre-weighed amount.

[6] = test system: mice; test: Glucocorticoid (corticosterone) secretion in mice; format: in vivo; settings: glucocorticoid, 10 mg/kg the known ID100
Procedure: Blood sampling was performed 2, 5, 8 and 24 h after dosing (n = 3 per sex per dose per sampling time). For blood sampling, mice were anaesthetized under isoflurane, and blood was collected by cardiac puncture. Blood was centrifuged, and plasma was taken and frozen at −80 °C until quantifications of corticosterone by GC–MS/MS.

Cc1c(C(=O)NN2CCCCC2)nn(-c2ccc(Cl)cc2Cl)c1-c1ccc(Cl)cc1 [rimonabant, Rimonabant]
1: N fold ID100 at highest dose tested ([1]; anxiety, 10 mg/kg the known ID100) | N fold ID100 at highest dose tested ([3]; withdrawal, 10 mg/kg the known ID100) | N fold ID100 at highest dose tested ([4]; depression, 10 mg/kg the known ID100) | N fold ID100 at highest dose tested ([5]; food-intake, 10 mg/kg the known ID100) | N fold ID100 at highest dose tested [6]
Yes: Overall effect: increase in anxiety-related behaviors ([1]; mice, elevated plus maze, highest dose tested 10 mg/kg, run in parallel) | Overall effect: increase in glucocorticoid secretion [2] | Overall effect: precipitated withdrawal in THC-dependent mice ([3]; highest dose tested 10 mg/kg, run in parallel) | Overall effect: increase in depression-related behaviors ([4]; mice, sucrose preference test, highest dose tested 10 mg/kg, run in parallel) | Overall effect: inhibition of spontaneous food-intake ([5]; mice, highest dose tested 10 mg/kg, run in parallel)
decreased: body weight in DIO mice vs vehicle ([5]; 10 mg/kg)
